The values below come from patent US20220184172A1, “AMPK/CASPASE-6 AXIS CONTROLS LIVER DAMAGE IN NONALCOHOLIC STEATOHEPATITIS” (The Regents of the University of California, priority 2019, published 2022).

For test [1], the system named is C57BL/6J mice fed 45% HFD. The conditions noted are these: 30 mg/kg twice per day for 7 days; cited from earlier work.
Test [2] has as its system CD-HFD-fed Flox and LAKO mice. Put plainly: A-769662 in CD-HFD-fed Flox and LAKO mice. The format is in vivo. The settings on record: 25 mg/kg i.p. daily for 2 weeks. The protocol: FIGS. 13A-13I. A-769662 improves liver damage through AMPK activation in hepatocytes in NASH. C57BL/6J mice were fed with CD-HFD for 8 weeks. After 6 weeks of CD-HFD feeding, mice were intraperitoneally injected with 25 mg/kg A-769662 or vehicle daily for 2 weeks along with continuous CD-HFD feeding. FIG. 13A. Schematic diagram of experimental design. FIG. 13B-13C. Body weight (FIG. 13B) and liver weight (FIG. 13C) of indicated mice. n=7. FIG. 13D. Measurement of liver triglyceride (TG) of indicated mice. n=7. FIG. 13E. Quantification of the numbers of TUNEL-positive nuclei per field in liver sections shown in (FIG. 10B (W6), 10A). n=5-7 *, P<0.05, Student's unpaired t test. FIG. 13F-13H. Flox and LAKO mice were fed with CD-HPD for 8 weeks. After 6 weeks of CD-HFD feeding, mice were intraperitoneally injected with 25 mg/kg A-769662 or vehicle daily for 2 weeks along with continuous CD-HFD feeding. FIG. 13F. Paraffin-embedded liver sections of indicated mice were stained with TUNEL and DAPI as indicated therein; in the merged image sections, the different stains correspond to the grayscale shades as indicated in the single stained images to the left. Scale bar=50 μm. FIG. 13G. FIG. 13H. Serum ALT of indicated mice. n=4-5. *, P<0.05, two-way ANOVA. FIG. 13I. Expression of Adgre1 and Ccl2 in the liver of indicated mice. n=7. Data are shown as mean±SEM. *, P<0.05, Student's unpaired t test.
FIGS. 15A-15F. AMPK phosphorylates caspase-6 and inhibits its cleavage. FIG. 15A. Caspase-6 activity was measure in the lysates from isolated primary hepatocytes treated with vehicle or 250 μM BSA-conjugated palmitic acid (PA) or 50 ng/ml TNFα for 2 hrs. Data are shown as mean±SD. *, P<0.05, Student's unpaired t test. FIG. 15B. HepG2 cells were pretreated with 40 μM A-769662 for 1 hr, and then treated with 30 μg/ml cycloheximide (CHX) and 50 ng/ml TNFα for 2 hrs. Cell lysates were subject to immunoblot (IB) analysis. FIG. 15C. […] Quantification of IB analysis in FIG. 15D. n=3. *, P<0.05, two-way ANOVA. […] Quantification of IB analysis in FIG. 5K. n=3. […]

With `N#Cc1c(O)c2c(-c3ccc(-c4ccccc4O)cc3)csc2[nH]c1=O` [A-769662], the hepatic triglycerides entry in test [1] is given as “reduced”. In test [2] (Flox mice), the “procaspase-6 cleavage (liver lysates)” value was “decreased” and the “procaspase-6 phosphorylation (liver lysates)” value is “significantly increased”. The “number of apoptotic cells (TUNEL)” value in test [2] (LAKO mice) is listed as “did not decrease”.
